Values after ≈ are worked out from the molar mass of the structure shown.
Legend:
[1] = target: T1, Inhibitor of nuclear factor kappa-B kinase subunit epsilon (Homo sapiens, UniProt Q14164); assay: Inhibition of human recombinant IKKepsilon by TR-FRET assay
T1 sequence (Q14164 whole entry): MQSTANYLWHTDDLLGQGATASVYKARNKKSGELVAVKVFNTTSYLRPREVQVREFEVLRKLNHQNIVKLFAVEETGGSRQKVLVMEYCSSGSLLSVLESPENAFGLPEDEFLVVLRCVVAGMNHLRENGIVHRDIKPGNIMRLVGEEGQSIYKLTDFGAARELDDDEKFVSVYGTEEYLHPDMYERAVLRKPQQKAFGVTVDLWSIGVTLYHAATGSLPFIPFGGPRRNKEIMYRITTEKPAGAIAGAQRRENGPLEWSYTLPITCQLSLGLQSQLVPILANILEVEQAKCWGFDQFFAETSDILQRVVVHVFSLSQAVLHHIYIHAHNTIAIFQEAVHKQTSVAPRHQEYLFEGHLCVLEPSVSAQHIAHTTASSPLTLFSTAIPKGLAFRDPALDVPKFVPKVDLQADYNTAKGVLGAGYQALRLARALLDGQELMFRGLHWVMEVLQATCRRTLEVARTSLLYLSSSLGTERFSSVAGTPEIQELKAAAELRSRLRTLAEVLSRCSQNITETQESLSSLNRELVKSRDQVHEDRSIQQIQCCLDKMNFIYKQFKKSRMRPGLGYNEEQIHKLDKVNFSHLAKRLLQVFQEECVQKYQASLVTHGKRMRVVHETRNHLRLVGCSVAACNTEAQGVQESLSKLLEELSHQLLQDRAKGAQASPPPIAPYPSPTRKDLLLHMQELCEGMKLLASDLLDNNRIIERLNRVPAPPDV

[2] = target: Serine/threonine-protein kinase PLK1 (Homo sapiens, UniProt P53350); assay: Inhibition of PLK1
Cytochrome P450 3A4 = Cytochrome P450 3A4 (Homo sapiens, UniProt P08684); assay: Inhibition of CYP3A4; type: ADME
[3] = target: Mitogen-activated protein kinase 11 (Homo sapiens, UniProt Q15759); assay: Inhibition of p38beta
[4] = target: Receptor tyrosine-protein kinase erbB-2 (Homo sapiens, UniProt P04626); assay: Inhibition of ErB2
[5] = target: Mitogen-activated protein kinase 10 (Homo sapiens, UniProt P53779); assay: Inhibition of JNK3
[6] = target: Epidermal growth factor receptor (Homo sapiens, UniProt P00533); assay: Inhibition of EGFR
TGF-beta receptor type-1 = target: T2, TGF-beta receptor type-1 (Homo sapiens, UniProt P36897); assay: Inhibition of Alk5
T2 sequence (P36897 whole entry): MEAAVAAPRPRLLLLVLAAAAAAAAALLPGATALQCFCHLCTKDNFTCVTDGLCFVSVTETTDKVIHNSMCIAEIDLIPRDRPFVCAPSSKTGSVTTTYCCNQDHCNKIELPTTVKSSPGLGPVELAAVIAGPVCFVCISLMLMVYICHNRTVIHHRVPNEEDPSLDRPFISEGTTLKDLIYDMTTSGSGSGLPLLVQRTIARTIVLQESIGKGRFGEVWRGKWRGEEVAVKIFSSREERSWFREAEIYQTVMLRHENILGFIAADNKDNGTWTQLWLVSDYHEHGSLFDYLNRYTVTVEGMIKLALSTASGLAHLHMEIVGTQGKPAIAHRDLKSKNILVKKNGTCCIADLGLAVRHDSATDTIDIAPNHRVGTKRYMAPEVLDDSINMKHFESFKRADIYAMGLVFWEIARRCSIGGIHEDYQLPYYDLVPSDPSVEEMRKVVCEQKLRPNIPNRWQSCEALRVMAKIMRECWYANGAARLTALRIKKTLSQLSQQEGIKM

[7] = target: Mitogen-activated protein kinase 14 (Homo sapiens, UniProt Q16539); assay: Inhibition of p38alpha
Cytochrome P450 1A2 = target: T3, Cytochrome P450 1A2 (Homo sapiens, UniProt P05177); assay: Inhibition of CYP1A2; type: ADME
T3 sequence (P05177 whole entry): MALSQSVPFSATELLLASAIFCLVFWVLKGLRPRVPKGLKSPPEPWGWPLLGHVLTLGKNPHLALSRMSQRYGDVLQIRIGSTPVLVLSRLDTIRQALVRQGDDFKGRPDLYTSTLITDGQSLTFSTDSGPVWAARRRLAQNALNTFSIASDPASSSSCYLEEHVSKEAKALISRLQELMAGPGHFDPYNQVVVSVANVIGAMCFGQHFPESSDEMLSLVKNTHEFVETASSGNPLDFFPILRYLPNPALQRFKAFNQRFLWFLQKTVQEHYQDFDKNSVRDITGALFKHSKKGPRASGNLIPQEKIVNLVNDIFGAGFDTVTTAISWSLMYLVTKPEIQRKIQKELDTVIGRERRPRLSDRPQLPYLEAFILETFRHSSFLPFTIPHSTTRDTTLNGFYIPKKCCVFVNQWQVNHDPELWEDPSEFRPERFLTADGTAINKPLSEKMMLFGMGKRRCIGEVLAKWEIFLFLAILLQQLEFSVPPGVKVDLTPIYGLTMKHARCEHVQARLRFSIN

Cytochrome P450 2C9 = Cytochrome P450 2C9 (Homo sapiens, UniProt P11712); assay: Inhibition of CYP2C9; type: ADME
[8] = Aqueous solubility of the compound; type: physicochemical; settings: buffer
Cytochrome P450 2D6 = Cytochrome P450 2D6 (Homo sapiens, UniProt P10635); assay: Inhibition of CYP2D6; type: ADME
[9] = target: Glycogen synthase kinase-3 (Homo sapiens, UniProt P49840+P49841); assay: Inhibition of GSK3; type: protein assay

Serine/threonine-protein kinase PLK1, sequence (P53350 whole entry): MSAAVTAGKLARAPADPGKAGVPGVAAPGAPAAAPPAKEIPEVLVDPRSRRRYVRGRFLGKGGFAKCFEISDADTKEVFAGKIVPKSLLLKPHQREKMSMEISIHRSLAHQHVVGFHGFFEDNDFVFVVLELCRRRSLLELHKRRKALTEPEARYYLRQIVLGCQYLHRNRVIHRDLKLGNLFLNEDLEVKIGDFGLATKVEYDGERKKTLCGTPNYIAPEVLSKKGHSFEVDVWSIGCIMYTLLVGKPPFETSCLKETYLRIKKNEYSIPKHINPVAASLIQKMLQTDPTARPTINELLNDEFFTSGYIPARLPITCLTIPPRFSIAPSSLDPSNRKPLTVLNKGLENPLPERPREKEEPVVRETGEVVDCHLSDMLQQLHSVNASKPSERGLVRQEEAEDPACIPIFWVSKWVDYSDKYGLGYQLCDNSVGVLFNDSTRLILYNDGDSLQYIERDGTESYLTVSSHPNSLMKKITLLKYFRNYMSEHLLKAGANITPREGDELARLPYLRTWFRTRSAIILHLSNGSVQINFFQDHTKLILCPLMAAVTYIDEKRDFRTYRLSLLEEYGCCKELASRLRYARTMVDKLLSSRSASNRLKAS
Mitogen-activated protein kinase 10, sequence (P53779 whole entry): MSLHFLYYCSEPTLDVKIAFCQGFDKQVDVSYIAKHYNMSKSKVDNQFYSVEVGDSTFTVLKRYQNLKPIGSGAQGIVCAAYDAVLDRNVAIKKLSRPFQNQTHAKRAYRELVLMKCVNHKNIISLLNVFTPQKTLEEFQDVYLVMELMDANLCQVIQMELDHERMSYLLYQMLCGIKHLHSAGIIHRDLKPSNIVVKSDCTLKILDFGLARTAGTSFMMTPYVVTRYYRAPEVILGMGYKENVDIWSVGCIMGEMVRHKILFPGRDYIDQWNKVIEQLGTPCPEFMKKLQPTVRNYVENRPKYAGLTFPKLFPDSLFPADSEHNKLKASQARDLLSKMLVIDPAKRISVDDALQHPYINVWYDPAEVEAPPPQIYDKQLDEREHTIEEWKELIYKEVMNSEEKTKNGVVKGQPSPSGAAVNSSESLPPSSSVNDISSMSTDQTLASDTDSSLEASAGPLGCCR
Mitogen-activated protein kinase 11, sequence (Q15759 whole entry): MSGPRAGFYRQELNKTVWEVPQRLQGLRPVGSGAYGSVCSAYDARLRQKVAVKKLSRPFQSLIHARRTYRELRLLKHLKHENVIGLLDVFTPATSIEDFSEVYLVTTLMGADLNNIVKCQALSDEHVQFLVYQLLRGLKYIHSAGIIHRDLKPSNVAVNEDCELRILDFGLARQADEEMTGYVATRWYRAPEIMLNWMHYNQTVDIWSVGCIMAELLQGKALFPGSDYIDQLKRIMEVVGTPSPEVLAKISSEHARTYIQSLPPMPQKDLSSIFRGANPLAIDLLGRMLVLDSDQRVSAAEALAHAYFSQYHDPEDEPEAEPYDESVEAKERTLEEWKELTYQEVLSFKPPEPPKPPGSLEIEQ
Receptor tyrosine-protein kinase erbB-2, sequence (P04626 whole entry): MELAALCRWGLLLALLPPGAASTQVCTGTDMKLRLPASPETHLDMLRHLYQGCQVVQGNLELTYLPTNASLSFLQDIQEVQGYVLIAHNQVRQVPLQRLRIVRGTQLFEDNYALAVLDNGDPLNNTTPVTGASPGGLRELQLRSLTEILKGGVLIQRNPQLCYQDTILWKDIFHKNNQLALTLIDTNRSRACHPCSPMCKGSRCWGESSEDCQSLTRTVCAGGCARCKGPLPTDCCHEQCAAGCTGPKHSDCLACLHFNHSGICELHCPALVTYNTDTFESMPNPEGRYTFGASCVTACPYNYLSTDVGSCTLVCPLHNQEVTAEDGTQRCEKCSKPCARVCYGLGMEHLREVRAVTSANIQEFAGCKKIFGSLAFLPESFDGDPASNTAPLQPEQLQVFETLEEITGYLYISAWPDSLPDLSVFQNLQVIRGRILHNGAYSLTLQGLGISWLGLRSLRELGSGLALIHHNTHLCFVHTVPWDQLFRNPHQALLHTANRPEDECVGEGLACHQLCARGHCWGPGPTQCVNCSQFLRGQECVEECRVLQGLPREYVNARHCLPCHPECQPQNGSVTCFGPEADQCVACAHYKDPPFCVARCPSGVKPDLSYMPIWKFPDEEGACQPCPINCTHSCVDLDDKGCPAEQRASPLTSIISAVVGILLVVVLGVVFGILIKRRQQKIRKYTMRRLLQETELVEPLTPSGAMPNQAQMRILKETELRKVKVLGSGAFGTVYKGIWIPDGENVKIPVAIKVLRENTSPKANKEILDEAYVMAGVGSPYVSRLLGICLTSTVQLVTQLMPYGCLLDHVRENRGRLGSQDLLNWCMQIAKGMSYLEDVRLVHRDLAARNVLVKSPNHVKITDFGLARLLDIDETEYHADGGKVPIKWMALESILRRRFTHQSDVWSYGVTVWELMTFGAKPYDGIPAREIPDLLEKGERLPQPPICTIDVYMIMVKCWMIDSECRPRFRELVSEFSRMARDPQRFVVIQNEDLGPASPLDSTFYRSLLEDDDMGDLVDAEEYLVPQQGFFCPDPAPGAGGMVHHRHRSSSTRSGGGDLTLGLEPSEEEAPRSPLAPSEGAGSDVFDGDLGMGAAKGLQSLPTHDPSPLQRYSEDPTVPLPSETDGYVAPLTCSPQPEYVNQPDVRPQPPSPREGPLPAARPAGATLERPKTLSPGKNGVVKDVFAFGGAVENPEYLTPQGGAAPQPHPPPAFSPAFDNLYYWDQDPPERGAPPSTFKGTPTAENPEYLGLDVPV
Mitogen-activated protein kinase 14, sequence (Q16539 whole entry): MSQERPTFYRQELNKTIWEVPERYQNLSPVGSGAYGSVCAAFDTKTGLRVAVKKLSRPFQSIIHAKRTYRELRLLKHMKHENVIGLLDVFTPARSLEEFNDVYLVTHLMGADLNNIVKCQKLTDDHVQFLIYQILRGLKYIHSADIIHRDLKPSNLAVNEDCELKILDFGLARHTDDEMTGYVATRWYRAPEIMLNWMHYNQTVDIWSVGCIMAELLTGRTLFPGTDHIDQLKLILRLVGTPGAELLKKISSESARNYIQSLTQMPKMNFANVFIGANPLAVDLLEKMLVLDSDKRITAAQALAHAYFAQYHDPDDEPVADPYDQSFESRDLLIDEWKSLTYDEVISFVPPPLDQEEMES
Cytochrome P450 2D6, sequence (P10635 whole entry): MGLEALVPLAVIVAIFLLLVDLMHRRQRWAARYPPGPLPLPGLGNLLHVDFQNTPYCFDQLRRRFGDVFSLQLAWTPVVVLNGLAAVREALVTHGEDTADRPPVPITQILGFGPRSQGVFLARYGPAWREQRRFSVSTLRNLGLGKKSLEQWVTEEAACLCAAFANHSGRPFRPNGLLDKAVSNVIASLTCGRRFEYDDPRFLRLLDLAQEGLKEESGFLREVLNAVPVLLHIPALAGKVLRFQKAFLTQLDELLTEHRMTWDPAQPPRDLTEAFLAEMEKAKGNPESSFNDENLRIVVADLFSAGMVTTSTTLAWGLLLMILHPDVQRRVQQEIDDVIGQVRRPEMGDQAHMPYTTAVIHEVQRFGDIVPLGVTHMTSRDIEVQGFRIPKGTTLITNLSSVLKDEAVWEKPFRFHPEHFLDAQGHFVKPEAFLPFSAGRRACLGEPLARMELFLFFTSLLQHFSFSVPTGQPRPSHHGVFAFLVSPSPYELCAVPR
Cytochrome P450 2C9, sequence (P11712 whole entry): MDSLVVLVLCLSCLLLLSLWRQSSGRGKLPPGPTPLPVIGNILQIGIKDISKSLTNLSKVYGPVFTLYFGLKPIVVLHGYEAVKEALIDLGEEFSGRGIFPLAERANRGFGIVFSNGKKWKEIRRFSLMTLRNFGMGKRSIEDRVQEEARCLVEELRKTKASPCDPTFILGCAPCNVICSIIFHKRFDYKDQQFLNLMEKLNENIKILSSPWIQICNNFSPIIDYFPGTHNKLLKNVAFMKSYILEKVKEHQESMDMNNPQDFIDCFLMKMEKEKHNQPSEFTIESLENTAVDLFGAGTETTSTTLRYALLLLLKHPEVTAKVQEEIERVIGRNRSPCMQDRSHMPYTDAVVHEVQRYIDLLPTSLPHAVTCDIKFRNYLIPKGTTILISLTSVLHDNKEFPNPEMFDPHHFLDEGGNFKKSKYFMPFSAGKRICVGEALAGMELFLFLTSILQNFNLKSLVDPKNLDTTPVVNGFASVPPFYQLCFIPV
Cytochrome P450 3A4, sequence (P08684 whole entry): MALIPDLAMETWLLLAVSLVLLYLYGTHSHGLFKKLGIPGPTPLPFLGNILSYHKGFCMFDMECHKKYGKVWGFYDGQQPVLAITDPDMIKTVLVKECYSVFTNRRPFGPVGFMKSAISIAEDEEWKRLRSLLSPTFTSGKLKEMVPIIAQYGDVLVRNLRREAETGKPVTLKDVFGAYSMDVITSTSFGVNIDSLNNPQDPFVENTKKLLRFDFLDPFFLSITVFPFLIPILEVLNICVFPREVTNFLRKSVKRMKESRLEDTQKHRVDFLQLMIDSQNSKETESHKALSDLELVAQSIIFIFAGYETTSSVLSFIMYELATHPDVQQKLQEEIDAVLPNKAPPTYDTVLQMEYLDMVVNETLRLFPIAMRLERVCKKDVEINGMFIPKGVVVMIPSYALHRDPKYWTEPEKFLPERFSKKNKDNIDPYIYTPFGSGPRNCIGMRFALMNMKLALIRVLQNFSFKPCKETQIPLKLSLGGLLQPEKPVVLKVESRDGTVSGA

`COc1cc2c(cc1OCCCO)ncn2-c1cc(OCc2ccccc2C(F)(F)F)c(C#N)s1` showed an IC50 [1] of 25.1 nM.

With `N#Cc1sc(-n2cnc3ccccc32)cc1OCc1ccccc1` the IC50 [1] was 1000 nM.

Work on `COc1cc2ncn(-c3cc(OCc4ccc(S(C)(=O)=O)cc4)c(C#N)s3)c2cc1OC` yielded an IC50 [2] of 631 nM and an IC50 [1] of 5010 nM.

`COc1cc2ncn(-c3cc(O)c(C#N)s3)c2cc1OC` showed an IC50 [1] of 2510 nM.

For `COc1cc2ncn(-c3cc(OCCN4CCCCC4)c(C#N)s3)c2cc1OC`, the IC50 [1] was 5010 nM.

Compound `COc1cc2ncn(-c3cc(O[C@H](C)c4ccccc4C(F)(F)F)c(C#N)s3)c2cc1OC` has an IC50 [1] of 3980 nM.

In the case of `COc1cc2ncn(-c3cc(O[C@H](C)c4ccccc4Cl)c(C(N)=O)s3)c2cc1OC` [GSK-237701A], the IC50 [1] is reported as 20000 nM.

`COc1cc2ncn(-c3cc(OCc4ccc(C(N)=O)cc4)c(C#N)s3)c2cc1OC` gave an IC50 [1] of 12600 nM.

`COc1cc2ncn(-c3cc(OCC4CCCO4)c(C#N)s3)c2cc1OC` (configuration not stated) gave an IC50 [1] of 794 nM.

In the case of `COc1cc2ncn(-c3cc(OCc4ccccc4)c(C(=O)O)s3)c2cc1OC`, the IC50 [2] is reported as 631 nM and the IC50 [1] is reported as > 15800 nM.

In the case of `COc1cc2c(cc1OCCN1CCOCC1)ncn2-c1cc(OCc2ccccc2C(F)(F)F)c(C#N)s1`, the IC50 [1] is reported as 50.1 nM.

With `COc1cc2ncn(-c3cc(OCc4ccccc4S(C)(=O)=O)c(C#N)s3)c2cc1OC` [GSK-319347A] the IC50 (Cytochrome P450 3A4) was > 50100 nM, the IC50 [3] was > 15800 nM and the IC50 [4] was > 10000 nM. The IC50 [5] was > 15800 nM, the IC50 [6] was > 10000 nM and the IC50 (TGF-beta receptor type-1) was > 5010 nM. For the same compound, the IC50 [2] was 794 nM, the IC50 [7] was > 15800 nM and the IC50 (Cytochrome P450 1A2) was > 50100 nM. For the same compound, the IC50 (Cytochrome P450 2C9) was > 50100 nM, the solubility [8] was 60 µM (≈ 28.2 µg/mL) and the IC50 (Cytochrome P450 2D6) was > 50100 nM. The IC50 [1] was 39.8 nM and the Log IC50 [9] was > -4.8.

For `COc1cc2ncn(-c3cc(OCC4CC4)c(C#N)s3)c2cc1OC`, the IC50 [1] was 3160 nM.

`COc1cc2ncn(-c3cc(OCc4ccccc4C(F)(F)F)c(C#N)s3)c2cc1OC` showed an IC50 [1] of 251 nM.

For `COc1cc2ncn(-c3cc(OCC4CCCO4)c(C(N)=O)s3)c2cc1OC` (configuration not stated), the IC50 [2] was 251 nM.

In the case of `COc1cc2ncn(-c3cc(OCc4ccc(S(C)(=O)=O)cc4)c(C(N)=O)s3)c2cc1OC`, the IC50 [2] is reported as 126 nM.

`COc1cc2ncn(-c3cc(OCCN4CCOCC4)c(C#N)s3)c2cc1OC` showed an IC50 [1] of 1580 nM.
